In patent US20230416168A1 (EUROCHEM ANTWERPEN, priority 2020, published 2023):
pIC50: −log10 of the molar value.

Assays:
Moorslede soil [1] = assay: In soil nitrification inhibition assay, Moorslede soil; conditions: soil, 120 h, 5 days
Procedure: Top layer (0 to 10 cm) soil samples were collected from different fields in Belgium (Merelbeke and Moorslede). Vegetation on the field trial was removed and samples were taken from different plots. All soil samples were mixed and sieved (mesh size 2.8 mm) to filter large debris and homogenize soil. The soil was stored at 5° C. in plastic containers covered with Saran foil to prevent changes in microbial community composition and to maintain the original soil water content.
Soil water content was determined by drying 20 g soil for 48 h in a 60° C. oven and measuring weight before and after drying. Based on the soil water content (±20%), compound solutions were prepared so that addition of 200 μl compound and 200 μl NH4Cl solution would result in a final compound concentration of 50 μM and a final NH4^+ concentration of 10 mM. Per treatment, 5 small pots were filled with 20 g soil. Next, the soil was treated first with the respective compound solution and then with the NH4Cl solution. Per tray, positive (50 μM DMP) and negative controls (DMSO) were included. Pots were incubated at 21° C. (6 a.m. to 10 p.m. light) for 7 days. Demineralized water was added to the soil every 2 to 3 days to a soil weight of 20 g. In the end, each sample of 20 g soil was dissolved in 100 ml 1M KCl and shaken for 1 hour, followed by filtration through Whatmann® paper. The filtrate was used to measure pH, NH4^+ and NO3− concentrations.
A set of examples was tested in the same conditions (Moorslede soil, 3 days of incubation) at a concentration of 50 μM.
Another set of examples was tested in different concentrations in Moorslede soil as well, and were sampled after 5 days.
The effect of 3H-1,3-thiazole-2-thione was tested in soil in accordance with the test described above in section 3.3.

Nitrosomonas europaea = assay: Nitrification inhibition assay with Nitrosomonas europaea (nitrite level after 24 h); type: cell-based; conditions: Nitrosomonas europaea
Procedure: (§1) The compounds of formula (I) and (II) and (III)/(IV) were tested for their nitrification inhibition effect in two screens, using assays with the nitrifying bacteria N. europaea and N. multiformis. In practice, ammonium and candidate nitrification inhibitors (at 100 μM) were added to a dense bacterial culture in multiwell culture plates and after 24 h of incubation, the nitrite level was measured. To normalize for differences between batches of cultures and multiwell culture plates, for each well a relative nitrification was calculated that was normalized towards both the negative and positive controls (see “Material and Methods” below for full details).
(§2) Nitrite (NO2−) was measured using the Griess reagent (Product number: G4410, Griess reagent (modified), Sigma-Aldrich). Equal volumes of the sample or a diluted sample and the Griess reagent were mixed a transparent flat bottom multi-well plate and incubated in the dark at room temperature for 10 minutes. Absorbance values at 540 nm were measured spectrophotometrically (EnVision, Perkin Elmer®) and used to calculate the [NO2−] by use of a standard curve.
To prepare a high-throughput nitrification inhibition assay using N. europaea, late-log phase cultures were subcultivated two days before the assay. Just before the assay, the cultures were 5 times overconcentrated with fresh growth medium after centrifugation (4000 rpm, 15 min, 5° C.) in 50 mL centrifuge tubes (Cat. No. 430829, CentriStar™ Conical Centrifuge Tubes, Corning®). Per batch, all the cultures were pooled in one sterile Schott bottle and subsequently dispensed into 384-well plates (Cat. No. 781086, CELL-STAR® plate, Greiner Bio-One; 50 μl/well) by use of a dispenser (Multidrop™ Combi Reagent Dispenser, Thermo Scientific™) that was first flushed with growth medium. Specifically for the high-throughput screen for new nitrification inhibitors, 0.5 μl of 99.99% DMSO (negative control—final concentration 1%) was added to the outer two columns on the left side of the plate and 0.5 μl of 10 mM DMP (3,4-dimethylpyrazole, positive control—final concentration 100 μM) was added to the outer two columns on the right side manually. Finally, 0.5 μl of candidate nitrification inhibitors (5 mM stock solutions in 99.99% DMSO—final concentration 50 μM) were added to the central wells using a pin tool on a Tecan robot (Freedom EVO®, Tecan). In between additions, the pins were washed in sequence with 99.5% DMSO, MilliQ water and 100% ethanol and air-dried. All plates were separately wrapped in Parafilm. Stacks of 4 plates were put on top of a 96-well plate filled with 100 μl MilliQ per well, covered with aluminum foil and shaken at 150 rpm at 28° C. 24 h later, NO2− production was assessed. For this, the samples were first 200 times diluted by pipetting 1.5 μl of samples into 300 μl of fresh growth medium in intermediate plates (Cat. No. 353077, Falcon® 96-well Clear Round Bottom Microplate, Corning®), to then mix 15 μl of the diluted samples with 15 μl Griess reagent in the wells of a transparent, flat bottom 384-well plate (Cat. No. X^7001, Low Profile Microplate, Molecular Devices) that was measured spectrophotometrically at 540 nm (EnVision, Perkin Elmer®).
(§3) To assess the efficacy of the compounds (in terms of nitrification inhibition) and to enable comparison between plates and batches of cultures, we calculated the relative nitrification. More in detail, all nitrite results were normalized towards both a negative control, containing no compound, and a positive control, containing the benchmark (100 μM DMP), using Equation 1. This normalization was done per multi-well plate and each plate contained 32 positive and 32 negative controls.
IC50 values, that is the concentration that inhibits 50% of the nitrification, were calculated after fitting a logistic curve to 8-point dose response data, using doses between 2 and 100 μM with 1.75 fold steps. […]

Nitrosospira multiformis = assay: Nitrification inhibition assay with Nitrosospira multiformis (nitrite level after 24 h); type: cell-based; conditions: Nitrosospira multiformis
Procedure: as §1, §2
Cultures were first 5 times overconcentrated in fresh 181-medium by centrifugation (4000 rpm, 15 min, 5° C.) in 50 mL centrifuge tubes (Cat. No. 430829, CentriStar™ Conical Centrifuge Tubes, Corning®). Per batch, all the cultures were pooled in one sterile Schott bottle and subsequently dispensed in 384-well plates (Cat. No. 781086, CELLSTAR® plate, Greiner BioOne; 50 μl/well) by use of a dispenser (Multidrop™ Combi Reagent Dispenser, Thermo Scientific™) that was first flushed with 181-medium. 0.5 μl of 99.99% DMSO (negative control—final concentration […] was added to the outer two columns on the left side of the plate and 0.5 μl of 10 mM DMP (3,4-dimethylpyrazole, positive control—final concentration 100 μM) was added to the outer two columns on the right side manually. Finally, 0.5 μl of candidate nitrification inhibitors (5 mM stock solutions in 99.99% DMSO—final concentration 50 μM) were added to the central wells using a pin tool on a Tecan robot (Freedom EVO®, Tecan). In between additions, the pins were washed in sequence with 99.5% DMSO, MilliQ water and 100% ethanol and air-dried. All plates were separately wrapped in Parafilm. Stacks of 4 plates were put on top of a 96-well plate filled with 100 μl MilliQ per well, covered with aluminum foil and shaken (±150 rpm) at 30° C. 24 h later, NO2− production was assessed. For this, the samples were first 100 times diluted by pipetting 3 μl of samples into 300 μl fresh growth medium in intermediate plates (Cat. No. 353077, Falcon® 96-well Clear Round Bottom Microplate, Corning®) to then mix 15 μl of the diluted samples with 15 μl Griess reagent in the wells of a transparent, flat bottom 384-well plate (Cat. No. X^7001, Low Profile Microplate, Molecular Devices) that was measured spectrophotometrically at 540 nm (EnVision, Perkin Elmer®).
as §3
IC50 values, that is the concentration that inhibits 50% of the nitrification, were calculated after fitting a logistic curve to 8-point dose response data, using doses between 2 and 100 μM with 1.75 fold steps. If a concentration of 2 μM already inhibited nitrification, the IC50 value could not be calculated. In that case, IC50 values represent the dose that gives inhibition closest to 50%.
The compounds of formula (I) and (II) were tested for their nitrification inhibition effect in two screens, using assays with the nitrifying bacteria N. europaea and N. multiformis. […]

Sint-Laureins soil = assay: Greenhouse gas emissions from soil fertilized with ammonium, Sint-Laureins soil
Procedure: (§4) Two agricultural soils coming from fields in Moorslede and Sint-Laureins were used. Screw top vials were filled with 10 g soil. Vials were sealed with Parafilm and preincubated at 21° C. in the dark for 5 days. After pre-incubation, vials were ventilated using a fan. The 100 μL of a 1 mM compound solution (10% DMSO) was added, immediately followed by the addition of 100 μL 200 mM NH4Cl. Vials were closed gastight and 5 mL synthetic air was added to the headspace using a plastic syringe, followed by the transfer of 5 mL headspace to an evacuated 3 mL exetainer. Vials were incubated at 21° C. in the dark and background NO concentration was noted. At each sampling timepoint, 5 mL synthetic air was added again to the headspace using a plastic syringe, again followed by the transfer of 5 mL headspace to an evacuated 3 mL exetainer. Vials were ventilated and closed again, and new gas samples were transferred to texetainers like before. N2O, CO2, CH4 in the exetainers were measured via gas chromatography. NO concentration was measured directly.
(§5) To further confirm the inhibitory effect of the new class of nitrification inhibitors on nitrogen losses, gas emissions from soil fertilized with ammonium and treated with 1,3-thiazolidine-2-thione were captured. NO, N2O, CO2 and CH4 was measured.

Moorslede soil [2] = assay: Greenhouse gas emissions from soil fertilized with ammonium, Moorslede soil
Procedure: as §4, §5

[3] = 8-point dose response, 2 to 100 μM, read-out: IC50

## CSc1ncco1 [Example 39]
Moorslede soil [1]; 50 μM, read-out: % Nitrification inhibition in soil (5 days of incubation, Moorslede soil) at indicated concentration
  inhibition at 50 µM: 62%
Nitrosomonas europaea; [3]
  pIC50: 4.59
Nitrosomonas europaea; tested concentration 100 μM, 24 h, normalized to DMSO (100%) and 100 μM DMP (0%), read-out: Nitrification (%) at tested concentration (0 = maximum activity)
  activity at 100 µM: 22%
Nitrosospira multiformis; [3]
  pIC50: < 4.00
Nitrosospira multiformis; tested concentration 100 μM, 24 h, normalized to DMSO (100%) and 100 μM DMP (0%), read-out: Nitrification at tested concentration (0 = maximum activity)
  activity at 100 µM: 52%

## S=C1NCCS1 [Example 3, 1,3-thiazolidine-2-thione]
Moorslede soil [1]; 20 μM, read-out: Average % nitrification inhibition in soil (5 days of incubation, Moorslede soil) at 20 μM
  inhibition at 20 µM: 7%
Sint-Laureins soil; CH4, 4 h
  Cumulative emission at indicated timepoint [ppm]: 0.00 ppm
Sint-Laureins soil; CH4, 24 h
  Cumulative emission at indicated timepoint [ppm]: 0.10 ppm
Sint-Laureins soil; CH4, 48 h
  Cumulative emission at indicated timepoint [ppm]: 0.16 ppm
Sint-Laureins soil; CH4, 72 h
  Cumulative emission at indicated timepoint [ppm]: 0.25 ppm
Sint-Laureins soil; CH4, 99 h
  Cumulative emission at indicated timepoint [ppm]: 0.25 ppm
Sint-Laureins soil; CO2, 4 h
  Cumulative emission at indicated timepoint [ppm]: 372 ppm
Sint-Laureins soil; CO2, 24 h
  Cumulative emission at indicated timepoint [ppm]: 1179 ppm
Sint-Laureins soil; CO2, 48 h
  Cumulative emission at indicated timepoint [ppm]: 2094 ppm
Sint-Laureins soil; CO2, 72 h
  Cumulative emission at indicated timepoint [ppm]: 3101 ppm
Sint-Laureins soil; CO2, 99 h
  Cumulative emission at indicated timepoint [ppm]: 4168 ppm
Sint-Laureins soil; N2O, 4 h
  Cumulative emission at indicated timepoint [ppm]: 0 ppm
Sint-Laureins soil; N2O, 24 h
  Cumulative emission at indicated timepoint [ppm]: 0 ppm
Sint-Laureins soil; N2O, 48 h
  Cumulative emission at indicated timepoint [ppm]: 1 ppm
Sint-Laureins soil; N2O, 72 h
  Cumulative emission at indicated timepoint [ppm]: 1 ppm
Sint-Laureins soil; N2O, 99 h
  Cumulative emission at indicated timepoint [ppm]: 2 ppm
Sint-Laureins soil; NO, 4 h
  Cumulative emission at indicated timepoint [ppm]: 17 ppm
Sint-Laureins soil; NO, 24 h
  Cumulative emission at indicated timepoint [ppm]: 52 ppm
Sint-Laureins soil; NO, 48 h
  Cumulative emission at indicated timepoint [ppm]: 86 ppm
Sint-Laureins soil; NO, 72 h
  Cumulative emission at indicated timepoint [ppm]: 140 ppm
Sint-Laureins soil; NO, 99 h
  Cumulative emission at indicated timepoint [ppm]: 161 ppm
Sint-Laureins soil; cumulative, incubation of 99 h
  effect on CH4 emission, in words: No significant effects
  effect on CO2 emission, in words: strongly reduced
  effect on N2O emission, in words: strongly reduced
  effect on NO emission, in words: strongly reduced
Moorslede soil [2]; CH4, 4 h
  Cumulative emission at indicated timepoint [ppm]: 0.20 ppm
Moorslede soil [2]; CH4, 24 h
  Cumulative emission at indicated timepoint [ppm]: 0.38 ppm
Moorslede soil [2]; CH4, 48 h
  Cumulative emission at indicated timepoint [ppm]: 0.38 ppm
Moorslede soil [2]; CH4, 72 h
  Cumulative emission at indicated timepoint [ppm]: 0.51 ppm
Moorslede soil [2]; CH4, 99 h
  Cumulative emission at indicated timepoint [ppm]: 0.51 ppm
Moorslede soil [2]; CO2, 4 h
  Cumulative emission at indicated timepoint [ppm]: 619 ppm
Moorslede soil [2]; CO2, 24 h
  Cumulative emission at indicated timepoint [ppm]: 2385 ppm
Moorslede soil [2]; CO2, 48 h
  Cumulative emission at indicated timepoint [ppm]: 4261 ppm
Moorslede soil [2]; CO2, 72 h
  Cumulative emission at indicated timepoint [ppm]: 6195 ppm
Moorslede soil [2]; CO2, 99 h
  Cumulative emission at indicated timepoint [ppm]: 8131 ppm
Moorslede soil [2]; N2O, 4 h
  Cumulative emission at indicated timepoint [ppm]: 0 ppm
Moorslede soil [2]; N2O, 24 h
  Cumulative emission at indicated timepoint [ppm]: 0 ppm
Moorslede soil [2]; N2O, 48 h
  Cumulative emission at indicated timepoint [ppm]: 0 ppm
Moorslede soil [2]; N2O, 72 h
  Cumulative emission at indicated timepoint [ppm]: 0 ppm
Moorslede soil [2]; N2O, 99 h
  Cumulative emission at indicated timepoint [ppm]: 0 ppm
Moorslede soil [2]; NO, 4 h
  Cumulative emission at indicated timepoint [ppm]: 25 ppm
Moorslede soil [2]; NO, 24 h
  Cumulative emission at indicated timepoint [ppm]: 28 ppm
Moorslede soil [2]; NO, 48 h
  Cumulative emission at indicated timepoint [ppm]: 43 ppm
Moorslede soil [2]; NO, 72 h
  Cumulative emission at indicated timepoint [ppm]: 65 ppm
Moorslede soil [2]; NO, 99 h
  Cumulative emission at indicated timepoint [ppm]: 65 ppm
Moorslede soil [2]; cumulative, incubation of 99 h
  effect on CH4 emission, in words: No significant effects
  effect on CO2 emission, in words: strongly reduced
  effect on N2O emission, in words: strongly reduced
  effect on NO emission, in words: strongly reduced
